What was measured:
blackgrass = assay: Test B pre/postemergence blackgrass; format: in vivo, Alopecurus myosuroides
Procedure, shortened: (§1)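 Response is a visual 0-to-10 score relative to untreated plants, where 0 means no effect and 10 means complete control, taken twelve to sixteen days after application. Treatments went onto soil at planting and onto foliage of 1- to 4-leaf plants, using a surfactant-containing non-phytotoxic solvent.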

rice = assay: Test B flood test rice; format: in vivo, Oryza sativa
Procedure, shortened: (§2)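 Read-out is a visual response score from 0 (no effect) to 10 (complete control), assigned by comparison with untreated controls. Treatment was applied at the 2-leaf stage, and plants stayed in the greenhouse for twelve to sixteen days before scoring.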

wild oat = assay: Test B pre/postemergence wild oat; format: in vivo, Avena fatua
Procedure, shortened: as §1

wheat = assay: Test B pre/postemergence wheat; format: in vivo, Triticum aestivum
Procedure, shortened: as §1

bamyardgrass = assay: Test B flood test barnyardgrass; format: in vivo, Echinochloa crus-galli
Procedure, shortened: as §2

surinam grass = assay: Test B pre/postemergence surinam grass; format: in vivo, Brachiaria decumbens
Procedure, shortened: as §1

morningglory = assay: Test B pre/postemergence morningglory; format: in vivo, Ipomoea hederacea
Procedure, shortened: as §1

cocklebur = assay: Test B pre/postemergence cocklebur; format: in vivo, Xanthium strumarium
Procedure, shortened: as §1

purple nutsedge = assay: Test B pre/postemergence purple nutsedge; format: in vivo, Cyperus rotundus
Procedure, shortened: as §1

bedstraw = assay: Test B pre/postemergence bedstraw; format: in vivo, Galium aparine
Procedure, shortened: as §1

smallflower flatsedge = assay: Test B flood test smallflower flatsedge; format: in vivo, Cyperus difformis
Procedure, shortened: as §2

rape = assay: Test B pre/postemergence rape; format: in vivo, Brassica napus
Procedure, shortened: as §1

velvetleaf = assay: Test B pre/postemergence velvetleaf; format: in vivo, Abutilon theophrasti
Procedure, shortened: as §1

corn = assay: Test B pre/postemergence corn; format: in vivo, Zea mays
Procedure, shortened: as §1

duck salad = assay: Test B flood test duck salad; format: in vivo, Heteranthera limosa
Procedure, shortened: as §2

pigweed = assay: Test B pre/postemergence pigweed; format: in vivo, Amaranthus retroflexus
Procedure, shortened: as §1

[1] = Postemergence, Rate 62 g/ha, scale 0 to 10, 0 is no effect, 10 is complete control
[2] = Postemergence, Rate 250 g/ha, scale 0 to 10, 0 no effect, 10 complete control
[3] = Preemergence, Rate 62 g/ha, scale 0 to 10 (0 no effect, 10 complete control)
[4] = Preemergence, Rate 125 g/ha, scale 0 to 10 (0 no effect, 10 complete control)
[5] = Preemergence, Rate 250 g/ha, scale of 0 to 10 where 0 is no effect and 10 is complete control
[6] = Preemergence, Rate 500 g/ha, scale 0 (no effect) to 10 (complete control)
[7] = Rate 125 g/ha, Postemergence, scale 0 to 10, 0 no effect, 10 complete control
[8] = Rate 500 g/ha, Postemergence, scale 0 to 10, 0 no effect, 10 complete control
[9] = Rate 125 g/ha, Postemergence section (flood test species), scale 0 to 10, 0 no effect, 10 complete control
[10] = Rate 500 g/ha, listed under Postemergence (flood test species), scale 0 to 10, 0 no effect, 10 complete control
[11] = flood test, listed under Postemergence, Rate 250 g/ha, scale 0 to 10, 0 no effect, 10 complete control

CN(C(=O)n1oc(=O)n(Cc2cccs2)c1=O)c1ccccc1 [Compound 83]
Blackgrass plant response rating (blackgrass; [1]): 0
Blackgrass plant response rating (blackgrass; [2]): 0
Blackgrass plant response rating (blackgrass; [3]): 0
Plant response rating, Blackgrass (blackgrass; [4]): 0
Plant response rating, Blackgrass (blackgrass; [5]): 0
Blackgrass plant response rating (blackgrass; [6]): 0
Blackgrass plant response rating (blackgrass; [7]): 0
Blackgrass plant response rating (blackgrass; [8]): 0
Rice plant response rating (rice; [1]): 0
Rice plant response rating (rice; [9]): 0
Rice plant response rating (rice; [10]): 0
Rice plant response rating (rice; [11]): 0
Wild oats plant response rating (wild oat; [1]): 0
Wild oats plant response rating (wild oat; [2]): 0
Wild oats plant response rating (wild oat; [3]): 0
Plant response rating, Wild oats (wild oat; [4]): 0
Plant response rating, Wild oats (wild oat; [5]): 0
Wild oats plant response rating (wild oat; [6]): 0
Wild oats plant response rating (wild oat; [7]): 0
Wild oats plant response rating (wild oat; [8]): 0
Wheat plant response rating (wheat; [1]): 0
Wheat plant response rating (wheat; [2]): 0
Wheat plant response rating (wheat; [3]): 0
Plant response rating, Wheat (wheat; [4]): 0
Plant response rating, Wheat (wheat; [5]): 0
Wheat plant response rating (wheat; [6]): 0
Wheat plant response rating (wheat; [7]): 0
Wheat plant response rating (wheat; [8]): 0
Barnyardgrass plant response rating (bamyardgrass; [1]): 0
Barnyardgrass plant response rating (bamyardgrass; [9]): 0
Barnyardgrass plant response rating (bamyardgrass; [10]): 0
Barnyardgrass plant response rating (bamyardgrass; [11]): 0
B. signalgrass plant response rating (surinam grass; [1]): 0
B. signalgrass plant response rating (surinam grass; [2]): 0
B. signalgrass plant response rating (surinam grass; [3]): 0
Plant response rating, B. signalgrass (surinam grass; [4]): 0
Plant response rating, B. signalgrass (surinam grass; [5]): 0
B. signalgrass plant response rating (surinam grass; [6]): 0
B. signalgrass plant response rating (surinam grass; [7]): 0
B. signalgrass plant response rating (surinam grass; Rate 500 g/ha, Postemergence, scale of 0 to 10 where 0 is no effect and 10 is complete control): 0
Morningglory plant response rating (morningglory; [1]): 0
Morningglory plant response rating (morningglory; [2]): 0
Morningglory plant response rating (morningglory; [3]): 0
Plant response rating, Morningglory (morningglory; [4]): 0
Plant response rating, Morningglory (morningglory; [5]): 0
Morningglory plant response rating (morningglory; [6]): 0
Morningglory plant response rating (morningglory; [7]): 0
Morningglory plant response rating (morningglory; [8]): 0
Cocklebur plant response rating (cocklebur; [1]): 0
Cocklebur plant response rating (cocklebur; [2]): 1
Cocklebur plant response rating (cocklebur; [3]): 0
Plant response rating, Cocklebur (cocklebur; [4]): 0
Plant response rating, Cocklebur (cocklebur; [5]): 0
Cocklebur plant response rating (cocklebur; [6]): 0
Cocklebur plant response rating (cocklebur; [7]): 0
Cocklebur plant response rating (cocklebur; [8]): 1
Nutsedge plant response rating (purple nutsedge; [1]): 0
Nutsedge plant response rating (purple nutsedge; [2]): 0
Nutsedge plant response rating (purple nutsedge; [3]): 0
Plant response rating, Nutsedge (purple nutsedge; [4]): 0
Plant response rating, Nutsedge (purple nutsedge; [5]): 0
Nutsedge plant response rating (purple nutsedge; [6]): 0
Nutsedge plant response rating (purple nutsedge; [7]): 0
Nutsedge plant response rating (purple nutsedge; [8]): 0
Bedstraw plant response rating (bedstraw; [1]): 0
Bedstraw plant response rating (bedstraw; [2]): 0
Bedstraw plant response rating (bedstraw; [3]): 0
Plant response rating, Bedstraw (bedstraw; [4]): 0
Plant response rating, Bedstraw (bedstraw; [5]): 0
Bedstraw plant response rating (bedstraw; [6]): 0
Bedstraw plant response rating (bedstraw; [7]): 0
Bedstraw plant response rating (bedstraw; [8]): 0
S. Flatsedge plant response rating (smallflower flatsedge; [1]): 0
S. Flatsedge plant response rating (smallflower flatsedge; [9]): 0
S. Flatsedge plant response rating (smallflower flatsedge; [10]): 0
S. Flatsedge plant response rating (smallflower flatsedge; [11]): 0
Rape plant response rating (rape; [1]): 0
Rape plant response rating (rape; [2]): 0
Rape plant response rating (rape; [3]): 0
Plant response rating, Rape (rape; [4]): 0
Plant response rating, Rape (rape; [5]): 0
Rape plant response rating (rape; [6]): 0
Rape plant response rating (rape; [7]): 0
Rape plant response rating (rape; [8]): 0
Velvetleaf plant response rating (velvetleaf; [1]): 0
Velvetleaf plant response rating (velvetleaf; [2]): 2
Velvetleaf plant response rating (velvetleaf; [3]): 0
Plant response rating, Velvetleaf (velvetleaf; [4]): 0
Plant response rating, Velvetleaf (velvetleaf; [5]): 0
Velvetleaf plant response rating (velvetleaf; [6]): 0
Velvetleaf plant response rating (velvetleaf; [7]): 2
Velvetleaf plant response rating (velvetleaf; [8]): 4
Corn plant response rating (corn; [1]): 0
Corn plant response rating (corn; [2]): 0
Corn plant response rating (corn; [3]): 0
Plant response rating, Corn (corn; [4]): 0
Plant response rating, Corn (corn; [5]): 0
Corn plant response rating (corn; [6]): 0
Corn plant response rating (corn; [7]): 0
Corn plant response rating (corn; [8]): 0
Ducksalad plant response rating (duck salad; [1]): 0
Ducksalad plant response rating (duck salad; [9]): 0
Ducksalad plant response rating (duck salad; [10]): 0
Ducksalad plant response rating (duck salad; [11]): 0
Redroot pigweed plant response rating (pigweed; [1]): 0
Redroot pigweed plant response rating (pigweed; [2]): 0
Redroot pigweed plant response rating (pigweed; [3]): 0
Plant response rating, Redroot pigweed (pigweed; [4]): 0
Plant response rating, Redroot pigweed (pigweed; [5]): 0
Redroot pigweed plant response rating (pigweed; [6]): 0
Redroot pigweed plant response rating (pigweed; [7]): 0
Redroot pigweed plant response rating (pigweed; [8]): 0
